Legend:
Format in all cases: cell-based, human
Rh30-Myr-p110δ cells = test: Akt phosphorylation in isogenic Rh30-Myr-p110 cells (Western blot); conditions: panel of isogenic Rh30-Myr-p110α/β/γ/δ cells, 1 h
Text: To assess the selectivity of X-370 in the context of an isogenic cellular background, we generated a panel of Rh30 human rhabdomyosarcoma cell lines each of which stably expresses a single myristoylated (Myr)-epitope tagged p110 human class I PI3K catalytic subunit, termed as Rh30-Myr-p110α, Rh30-Myr-p110β, Rh30-Myr-p110γ or Rh30-Myr-p110δ. In these cells, endogenous PI3K is not activated under serum-free culture conditions, whereas the ectopically expressed p110 isoforms are membrane-anchored and constitutively active due to myristoylation at N-terminal. Utilizing this cell panel, isoform-specific PI3K activity can be determined for any given inhibitor[25]. These cells were treated with X-370 and phosphorylated Akt was detected as the readout of PI3K activity. X-370 inhibited phosphorylation of Akt at both Thr308 and Ser473 in a dose-dependent manner in four tested cell lines (Figure 2A). […] Similar property was also observed in CAL-101 (Figure S2).
Cell lysates were probed with indicated antibodies. The IC50 values were calculated based on relative band intensity measured with ImageQuant™ TL (GE Healthcare Life Sciences, Piscataway, NJ) (B). Data shown are mean values from three independent experiments. (C, D, E, F) X-370 blocked stimuli-triggered PI3Kδ activation. MEF cells and THP-1 were starved in serum-free medium for 12 h or 4 h respectively and X-370 were added for an additional 1 h treatment following stimulation of IGF-1 at 100 ng/ml for MEF cells (C), LPA at 10 μM for MEF cells (D), MCP-1 at 100ng/ml for THP-1 (E) and M-CSF at 50 ng/ml for THP-1 (F). Similar results were derived from 3 independent experiments. TEXT PRINTED IN THE PICTURE: (B) X-370: IC50 (μM) in Rh30-Myr-p110s, Akt pT308, PI3Kα: 0.68; IC50 (μM) in Rh30-Myr-p110s, Akt pT308, PI3Kβ: 0.4; IC50 (μM) in Rh30-Myr-p110s, Akt pT308, PI3Kγ: 0.46; IC50 (μM) in Rh30-Myr-p110s, Akt pT308, PI3Kδ: 0.032; IC50 (μM) in Rh30-Myr-p110s, Akt pS473, PI3Kα: 0.53; IC50 (μM) in Rh30-Myr-p110s, Akt pS473, PI3Kβ: 0.29; IC50 (μM) in Rh30-Myr-p110s, Akt pS473, PI3Kγ: 0.23; IC50 (μM) in Rh30-Myr-p110s, Akt pS473, PI3Kδ: 0.02 DOUBTS OF THE COPYIST ABOUT THIS PICTURE: Panel B prints no substance label in the table itself; the label X-370 is taken from the other panels of the same picture, where it is the only substance printed. […]
(§1) Cells were treated as indicated conditions and then subjected to lysate to perform standard Western blot as described previously1. Briefly, whole-cell lysates and SDS-loading buffer diluted cell fractions were analyzed on SDS-PAGE gels. Transfer to nitrocellulose membranes, nonfat milk blocking, probing with indicated primary antibodies and the corresponding HRP-conjugated second antibodies.
(§2) Chemiluminescence were performed and captured using ImageQuant LAS 4000 (GE healthcare Life Sciences, Piscataway, NJ, USA) and band intensity was measure both with ImageQuant™ TL (GE Healthcare Life Sciences) 2. […]
(§3) (also on this page, place not known: PI3Kδ -dependent MEK1/2 - B -cell previously 1. whole -cell SDS -loading SDS -PAGE HRP -conjugated (G E A B Val828 Trp760 Thr750 Met752 Tyr813 affinity pocket specificity pocket hinge Glu826 CAL-101 X-370) […]
(1 picture or pasted object on this page, not shown here) […]
in serum-free medium for 12 h and then incubated with serially diluted CAL -101 for an additional 1 h.
Cell lysates were probed with indicated antibodies. The IC50 values were calculated based on relative band intensity measured with ImageQuant™ TL (GE Healthcare Life Sciences, Piscataway, NJ). Data shown are mean values from three independent experiments.
Table S1: Inhibitory activity of X-370 against protein kinases […]
kinome at 10 μM. The relative kianse activity left in the presence of 10 μM were shown (Mi llipore […]
Kinase activity (% of control) Kinase activity (% of control) Kinase activity (% of control) […]
CDK1/cyclinB 97 Lck activated 89 Ret 125 […]

Raji cells = test: Signaling by Western blot
Procedure: (§4) Raji and SU-DHL-6 cells were treated with X-370 for 1 h (left panel) or treated with 0.5 μM X-370 for indicated times (middle panel). Right panel, Raji cells were incubated in fresh medium following treatment with 0.5 μM X-370 for 1 h. Indicated proteins were detected. (B) Raji-R (the rituximab-resistant derivatives of Raji cells) cells were resistant to X-370. The activity of X-370 on the proliferation of Raji parent and Raji-R cells was determined by CCK-8 assay as described in the methods section. (C) X-370 blocked phosphorylation of Akt but not Erk1/2 in Raji-R cells. Raji-R cells were treated with X-370 for 1h and indicated proteins were detected. Data shown are representative from three independent experiments.
(§5) Figure 5 Inhibition of Erk1/2 phosphorylation by X-370 contributed to its antiproliferative activity (A-C) X-370 inhibited Erk1/2 phosphorylation via PI3K-PDK1-MEK1/2 cascade but not the PI3K-Gab1 positive feedback loop. (A) Raji and SU-DHL-6 cells were exposed to 1 μM X370 for 3 h and protein fraction from cellular membrane was separated using Native Membrane Protein Extraction Kit and probed. WCL: whole cell lysate. (B) Inhibition of PDK1 or MEK1/2 abrogated Erk1/2 phosphorylation. Cells were treated with pharmacological inhibitors of Raf (AZ 628, PLX4032), MEK1/2 (AZD6244), p90RSK (BI-D1870), PI3Kδ (X-370), PDK1 (BX-912), Akt (MK-2206), mTOR (AZD8055) or mTORC1 (Rapamycin) respectively and indicated proteins were detected. (C) X-370 disrupted the association between PDK1 and MEK1/2. Raji cells were treated with 1 μM X370 for 1 h and cell lysates were immunoprecipitated with anti-PDK1 antibody and indicated proteins were detected. WCL: whole cell lysate. (D-F) Inhibition of Erk1/2 phosphorylation was required for the anti-proliferative activity of X-370. (D) Raji cells ectopically expressing a constitutively activated phospho-mimic MEK1 mutant (MEK1 S202D/S204D or MEK DD) were incubated with X-370 or AZD6244 for 1 h and then subjected to Western blot. (E) Raji and Raji MEK DD cells were treated with X-370 for 72 h and cell proliferation was detected by CCK-8 assay. (F) Raji MEK DD cells were treated with X-370 and AZD6244 and cell proliferation was detected by CCK-8 assay. Data were show as mean ± SD of three independent experiments. *: p < 0.05 determined by t-tests at each data point. […]
as §1, §2, §3
(§6) (1 picture or pasted object on this page, not shown here)

SU-DHL-6 cells = test: Signaling by Western blot
Procedure: as §4, §5, §1, §2, §3, §6

Raji MEK DD cells [1] = test: Erk1/2 phosphorylation in Raji cells expressing MEK DD (Western blot); conditions: 1 h
Procedure: as §5, with “(D-F) Inhibition of Erk1/2 phosphorylation was required for the anti-proliferative activity of X-370. (D) Raji cells ectopically expressing a constitutively activated phospho-mimic MEK1 mutant (MEK1 S202D/S204D or MEK DD) were incubated with X-370 or AZD6244 for 1 h and then subjected to Western blot.” left out

Raji MEK DD cells [2] = test: Proliferation of Raji MEK DD cells (CCK-8); conditions: Raji MEK DD; 1 μM, 72 h, CCK-8
Procedure: as §5, with “(C) X-370 disrupted the association between PDK1 and MEK1/2.” left out, “WCL: whole cell lysate. (D-F) Inhibition of Erk1/2 phosphorylation was required for the anti-proliferative activity of X-370. (D) Raji cells ectopically expressing a constitutively activated phospho-mimic MEK1 mutant (MEK1 S202D/S204D or MEK DD) were incubated with X-370 or AZD6244 for 1 h and then subjected to Western blot.” left out
luciferase. Raji cells expressing MEK DD or luciferase were incubated with 1 μM AZD6244 or DMSO control respectively for 72 h, and then cell viability were assessed by CCK-8 reagent. […]

[3] = system: Raji cells expressing luciferase; test: Viability of Raji cells expressing luciferase (CCK-8); conditions: 1 μM, 72 h
Procedure: Cell viability was assessed using Cell Counting Kit (CCK-8, Dojindo, Japan) following the manufacturer's protocol and OD values were measured with a Spectramax M5 plate reader (Molecular Devices, Sunnyvale, CA)[45].
Figure S6: CAL-101 inhibited both Akt and Erk1/2 signaling in Raji and SU-DHL -6 cells. Raji and SU-DHL-6 cells were incubated with CAL-101 for an hour and then collected to perform Western blot, the […]
luciferase. Raji cells expressing MEK DD or luciferase were incubated with 1 μM AZD6244 or DMSO control respectively for 72 h, and then cell viability were assessed by CCK-8 reagent. NS indicated no significance. Data were show as mean + SD of three independent experiments. […]

Compound | selectivity against PI3Kδ-mediated signaling at cellular level (Rh30-Myr-p110δ cells) | phosphorylation of Akt and Erk1/2 (Raji cells; Raji, 1 h) | phosphorylation of Akt and Erk1/2 (SU-DHL-6 cells; SU-DHL-6, 1 h) | phosphorylated Erk1/2, panel of pathway inhibitors (Raji cells; Raji (Figure 5B)) | phosphorylated Erk1/2, panel of pathway inhibitors (SU-DHL-6 cells; SU-DHL-6 (Figure 5B)) | Erk1/2 phosphorylation (Raji MEK DD cells [1]) | antiproliferative activity alone (Raji MEK DD cells [2]) | antiproliferative activity alone [3]
CC[C@H](Nc1ncnc2[nH]cnc12)c1nc2cccc(F)c2c(=O)n1-c1ccccc1 [CAL-101, idelalisib, reference compound] | highly selective | downregulated at low nanomolar concentrations | downregulated at low nanomolar concentrations |  |  |  |  | 
Cn1cnc2c(F)c(Nc3ccc(Br)cc3Cl)c(C(=O)NOCCO)cc21 [AZD6244] |  |  |  | down-regulated | down-regulated | abolished | little antiproliferative activity | little antiproliferative activity

Reference: PMC4279406, “Simultaneous targeting of PI3Kδ and a PI3Kδ-dependent MEK1/2-Erk1/2 pathway for therapy in pediatric B-cell acute lymphoblastic leukemia” (Oncotarget, 2014)
